Read-outs that look alike come from different tables or passages of the source.
How the values were obtained:
[1] = test system: HIV-1 Y181C mutant virus in Hela P4/R5 cells; assay: HIV-1 single cycle replication assay, Y181C mutant virus; assay type: cell-based
[2] = test system: HIV-1 K103N mutant virus in Hela P4/R5 cells; assay: HIV-1 single cycle replication assay, K103N mutant virus; assay type: cell-based
HIV-1 WT RT (non-bio-RT) = test system: HIV-1 WT RT (non-bio-RT); set-up: method as in earlier work; details: reported previously, read-out: Inhibitory potency IC50 versus WT RT (non-biotinylated); cited from earlier work
[3] = test system: HIV-1 Y188L mutant virus in Hela P4/R5 cells; assay: HIV-1 single cycle replication assay, Y188L mutant virus; assay type: cell-based
[4] = test system: HIV-1 Y181F/Y188F mutant virus in Hela P4/R5 cells; assay: HIV-1 single cycle replication assay, Y181F/Y188F mutant virus; assay type: cell-based
[5] = test system: HIV-1 K103E mutant virus in Hela P4/R5 cells; assay: HIV-1 single cycle replication assay, K103E mutant virus; assay type: cell-based
[6] = test system: HIV-1 WT virus (HXB2) in Hela P4/R5 cells; assay: HIV-1 single cycle replication assay, WT virus; assay type: cell-based; details: read-out: EC50 against WT virus
[7] = test system: HIV-1 Y188F mutant virus in Hela P4/R5 cells; assay: HIV-1 single cycle replication assay, Y188F mutant virus; assay type: cell-based
[8] = test system: HIV-1 K103A mutant virus in Hela P4/R5 cells; assay: HIV-1 single cycle replication assay, K103A mutant virus; assay type: cell-based
[9] = test system: HIV-1 K103N/Y188F mutant virus in Hela P4/R5 cells; assay: HIV-1 single cycle replication assay, K103N/Y188F mutant virus; assay type: cell-based
[10] = test system: HIV-1 Y181F mutant virus in Hela P4/R5 cells; assay: HIV-1 single cycle replication assay, Y181F mutant virus; assay type: cell-based
[11] = Human immunodeficiency virus 1, HXB2, single-cycle replication, Hela P4/R5 cells, 48 h, mean ± SD
[12] = Human immunodeficiency virus 1, read-out: EC50 against Y181C mutant virus
[13] = Human immunodeficiency virus 1, read-out: EC50 against K103N mutant virus
[14] = Human immunodeficiency virus 1, read-out: EC50 against Y188L mutant virus
[15] = Human immunodeficiency virus 1, read-out: EC50 against Y181F/Y188F mutant virus
[16] = Human immunodeficiency virus 1, read-out: EC50 against K103E mutant virus
[17] = Human immunodeficiency virus 1, read-out: EC50 against Y188F mutant virus
[18] = Human immunodeficiency virus 1, read-out: EC50 against K103A mutant virus
[19] = Human immunodeficiency virus 1, read-out: EC50 against K103N/Y188F mutant virus
[20] = Human immunodeficiency virus 1, read-out: EC50 against Y181F mutant virus

**Q.** Which EC50 ([1]; Human immunodeficiency virus 1, single-cycle replication, Hela P4/R5 cells, mean ± SD, read-out: EC50 against Y181C mutant virus) does the source give for `Cc1ccnc2c1NC(=O)c1cccnc1N2C1CC1` [NVP, nevirapine] here?
**A.** 2270 ± 197 nM

**Q.** And the EC50 ([2]; Human immunodeficiency virus 1, single-cycle replication, Hela P4/R5 cells, mean ± SD, read-out: EC50 against K103N mutant virus)?
**A.** 5080 ± 1690 nM

**Q.** And the IC50 (HIV-1 WT RT (non-bio-RT))?
**A.** 137 nM

**Q.** What about the EC50 ([3]; Human immunodeficiency virus 1, single-cycle replication, Hela P4/R5 cells, mean ± SD, read-out: EC50 against Y188L mutant virus) of the same compound?
**A.** > 25000 nM

**Q.** And the EC50 ([4]; Human immunodeficiency virus 1, single-cycle replication, Hela P4/R5 cells, mean ± SD, read-out: EC50 against Y181F/Y188F mutant virus)?
**A.** 34 ± 2.5 nM

**Q.** And the EC50 ([5]; Human immunodeficiency virus 1, single-cycle replication, Hela P4/R5 cells, mean ± SD, read-out: EC50 against K103E mutant virus)?
**A.** 65 ± 27 nM

**Q.** And the EC50 [6, 11]?
**A.** 95 ± 6 nM

**Q.** And the EC50 ([7]; Human immunodeficiency virus 1, single-cycle replication, Hela P4/R5 cells, mean ± SD, read-out: EC50 against Y188F mutant virus)?
**A.** 62 ± 11 nM

**Q.** And the EC50 ([8]; Human immunodeficiency virus 1, single-cycle replication, Hela P4/R5 cells, mean ± SD, read-out: EC50 against K103A mutant virus)?
**A.** 216 ± 51 nM

**Q.** And the EC50 ([9]; Human immunodeficiency virus 1, single-cycle replication, Hela P4/R5 cells, mean ± SD, read-out: EC50 against K103N/Y188F mutant virus)?
**A.** 14500 nM

**Q.** What about the EC50 ([10]; Human immunodeficiency virus 1, single-cycle replication, Hela P4/R5 cells, mean ± SD, read-out: EC50 against Y181F mutant virus) of the same compound?
**A.** 37 ± 7 nM

**Q.** For `CC(C)Nc1cccnc1N1CCN(C(=O)c2cc3cc(NS(C)(=O)=O)ccc3[nH]2)CC1` [DLV, delavirdine], which EC50 [1, 12] is on record?
**A.** 1150 ± 301 nM

**Q.** And the EC50 [2, 13]?
**A.** 2600 ± 346 nM

**Q.** What about the EC50 [3, 14] of the same compound?
**A.** 913 ± 90 nM

**Q.** What about the EC50 [4, 15] of the same compound?
**A.** 4.1 ± 0.12 nM

**Q.** And the EC50 [5, 16]?
**A.** 64 ± 7 nM

**Q.** What about the EC50 ([6]; Human immunodeficiency virus 1, HXB2, 48 h) of the same compound?
**A.** 26 ± 7 nM

**Q.** And the EC50 [7, 17]?
**A.** 14 ± 4 nM

**Q.** What about the EC50 [8, 18] of the same compound?
**A.** 38 ± 12 nM

**Q.** And the EC50 [9, 19]?
**A.** 1500 ± 43 nM

**Q.** And the EC50 [10, 20]?
**A.** 8.6 ± 1.3 nM

**Q.** What does the source list for `O=C1Nc2ccc(Cl)cc2[C@@](C#CC2CC2)(C(F)(F)F)O1` [EFV, efavirenz]?
**A.** EC50 [1, 12]: 1.4 ± 0.1 nM; EC50 [2, 13]: 69 ± 5.7 nM; IC50 (HIV-1 WT RT (non-bio-RT)): 0.42 nM; EC50 [3, 14]: 639 ± 63 nM; EC50 [4, 15]: 0.4 ± 0.1 nM; EC50 [5, 16]: 0.9 ± 0.3 nM; EC50 [6, 11]: 1.2 nM; EC50 [7, 17]: 0.3 ± 0.05 nM; Y188F mutant virus more sensitive to inhibition than WT virus ([7]; fold more sensitive than WT virus): ~ 4 fold; EC50 [8, 18]: 2 ± 0.2 nM; EC50 [9, 19]: 40 ± 8.1 nM; EC50 [10, 20]: 0.5 ± 0.07 nM

— publication PMC5086599 (Viruses, 2016)
